Source: ChEMBL document CHEMBL1146078, “Discovery and preclinical studies of (R)-1-(4-(4-fluoro-2-methyl-1H-indol-5-yloxy)-5- methylpyrrolo[2,1-f][1,2,4]triazin-6-yloxy)propan- 2-ol (BMS-540215), an in vivo active potent VEGFR-2 inhibitor” (J Med Chem, 2006)
Each block holds one molecule with its values, some of them ahead of it.

Tests used:
[1] = AUC in mice at 50 mg/kg after 4 hrs; type: ADME, organism-based; design: time < 4 hr, dose 50 mg/kg; details: mouse, plasma
[2] = Cmax in mice at 50 mg/kg after 4 hrs; type: ADME, organism-based; design: dose 50 mg/kg; details: mouse, in vivo
Cytochrome P450 3A4 = Cytochrome P450 3A4 (Homo sapiens, UniProt P08684); assay: Inhibitory activity against CYP3A4
hERG = hERG (Homo sapiens, UniProt Q12809); assay: Inhibitory activity against hERG by patch-clamp assay at 1 uM; type: functional
[3] = molecular target: Voltage-gated inwardly rectifying potassium channel KCNH2 (Homo sapiens, UniProt Q12809); assay: Inhibitory activity against hERG by patch-clamp assay; type: functional
[4] = molecular target: Vascular endothelial growth factor receptor 2 (Mus musculus, UniProt P35918); assay: Inhibitory activity against Flk1
H3396 [5] = assay: Antitumor activity against H3396 cell xenografted in athymic mice at 60 mg/kg; type: functional, Homo sapiens
[6] = AUC in BALB/c mouse at 10 mg/kg, iv after 24 hrs; type: ADME, organism-based; design: time < 24 hr, dose 10 mg/kg, route intravenous; details: plasma
[7] = Half life in BALB/c mouse at 10 mg/kg, iv after 24 hrs; type: ADME, organism-based; design: dose 10 mg/kg, route intravenous; details: in vivo
[8] = Mean residence time in BALB/c mouse at 10 mg/kg, iv after 24 hrs; type: ADME, organism-based; design: dose 10 mg/kg, route intravenous; details: in vivo
[9] = Systemic clearance in BALB/c mouse at 10 mg/kg, iv after 24 hrs; type: ADME, organism-based; design: dose 10 mg/kg, route intravenous; details: in vivo
[10] = Volume of distribution in BALB/c mouse at 10 mg/kg, iv after 24 hrs; type: ADME, organism-based; design: dose 10 mg/kg, route intravenous; details: in vivo, read-out: Vss
[11] = AUC in BALB/c mouse at 60 mg/kg, po after 24 hrs; type: ADME, organism-based; design: time < 24 hr, dose 60 mg/kg, route oral; details: plasma
[12] = Half life in BALB/c mouse at 60 mg/kg, po after 24 hrs; type: ADME, organism-based; design: dose 60 mg/kg, route oral; details: in vivo
[13] = Oral bioavailability in BALB/c mouse at 60 mg/kg, po after 24 hrs; type: ADME, organism-based; details: in vivo
H3396 [14] = assay: Antitumor activity against H3396 cell xenografted in athymic mice at 90 mg/kg; type: functional, Homo sapiens
[15] = Cmax in rat at 25 mg/kg as solution after 24 hrs; type: ADME, organism-based; design: dose 25 mg/kg; details: in vivo
[16] = Cmax in rat at 25 mg/kg as micronized suspension after 24 hrs; type: ADME, organism-based; design: dose 25 mg/kg; details: in vivo
[17] = Cmax in rat at 100 mg/kg as micronized suspension after 24 hrs; type: ADME, organism-based; design: dose 100 mg/kg; details: in vivo
[18] = Cmax in rat at 200 mg/kg as micronized suspension after 24 hrs; type: ADME, organism-based; design: dose 200 mg/kg; details: in vivo
[19] = AUC in rat at 25 mg/kg as solution after 24 hrs; type: ADME, organism-based; design: time < 24 hr, dose 25 mg/kg; details: plasma
[20] = AUC in rat at 25 mg/kg as micronized suspension after 24 hrs; type: ADME, organism-based; design: time < 24 hr, dose 25 mg/kg; details: plasma
[21] = AUC in rat at 100 mg/kg as micronized suspension after 24 hrs; type: ADME, organism-based; design: time < 24 hr, dose 100 mg/kg; details: plasma
[22] = AUC in rat at 200 mg/kg as micronized suspension after 24 hrs; type: ADME, organism-based; design: time < 24 hr, dose 200 mg/kg; details: plasma
[23] = Tmax in male BALB/c mice; type: ADME, organism-based; details: mouse, in vivo

Voltage-gated inwardly rectifying potassium channel KCNH2, sequence (Q12809 whole entry): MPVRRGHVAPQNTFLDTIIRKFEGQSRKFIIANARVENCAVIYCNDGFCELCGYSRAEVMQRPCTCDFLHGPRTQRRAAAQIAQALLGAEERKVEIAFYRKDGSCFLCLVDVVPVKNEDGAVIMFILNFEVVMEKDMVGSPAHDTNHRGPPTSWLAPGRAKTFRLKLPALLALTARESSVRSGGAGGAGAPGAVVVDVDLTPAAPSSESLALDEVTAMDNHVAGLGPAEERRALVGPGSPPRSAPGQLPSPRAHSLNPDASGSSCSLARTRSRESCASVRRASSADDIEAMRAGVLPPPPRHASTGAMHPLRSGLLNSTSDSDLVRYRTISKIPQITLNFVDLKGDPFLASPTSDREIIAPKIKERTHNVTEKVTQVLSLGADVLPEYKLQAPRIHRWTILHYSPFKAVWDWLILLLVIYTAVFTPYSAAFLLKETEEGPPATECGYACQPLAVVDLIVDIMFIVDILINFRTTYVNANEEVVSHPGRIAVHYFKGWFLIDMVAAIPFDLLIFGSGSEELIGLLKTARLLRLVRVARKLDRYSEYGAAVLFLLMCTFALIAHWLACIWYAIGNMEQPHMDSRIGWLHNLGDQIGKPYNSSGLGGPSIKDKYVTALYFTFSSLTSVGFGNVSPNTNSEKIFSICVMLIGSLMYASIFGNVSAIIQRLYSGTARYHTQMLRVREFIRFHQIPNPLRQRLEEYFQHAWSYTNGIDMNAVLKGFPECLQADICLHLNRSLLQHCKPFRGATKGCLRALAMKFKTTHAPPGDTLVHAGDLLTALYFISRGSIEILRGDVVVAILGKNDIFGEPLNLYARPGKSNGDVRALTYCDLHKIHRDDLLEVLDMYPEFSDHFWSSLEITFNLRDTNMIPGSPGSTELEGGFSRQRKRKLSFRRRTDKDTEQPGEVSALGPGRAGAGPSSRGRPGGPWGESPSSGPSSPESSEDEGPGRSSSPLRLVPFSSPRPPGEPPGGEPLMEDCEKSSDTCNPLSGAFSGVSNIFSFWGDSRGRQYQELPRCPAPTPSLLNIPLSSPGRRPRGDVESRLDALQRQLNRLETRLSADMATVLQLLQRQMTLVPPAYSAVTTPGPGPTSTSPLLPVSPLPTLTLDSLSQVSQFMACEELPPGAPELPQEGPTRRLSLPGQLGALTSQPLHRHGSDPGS
hERG, sequence (Q12809 whole entry): as above
Cytochrome P450 3A4, sequence (P08684 whole entry): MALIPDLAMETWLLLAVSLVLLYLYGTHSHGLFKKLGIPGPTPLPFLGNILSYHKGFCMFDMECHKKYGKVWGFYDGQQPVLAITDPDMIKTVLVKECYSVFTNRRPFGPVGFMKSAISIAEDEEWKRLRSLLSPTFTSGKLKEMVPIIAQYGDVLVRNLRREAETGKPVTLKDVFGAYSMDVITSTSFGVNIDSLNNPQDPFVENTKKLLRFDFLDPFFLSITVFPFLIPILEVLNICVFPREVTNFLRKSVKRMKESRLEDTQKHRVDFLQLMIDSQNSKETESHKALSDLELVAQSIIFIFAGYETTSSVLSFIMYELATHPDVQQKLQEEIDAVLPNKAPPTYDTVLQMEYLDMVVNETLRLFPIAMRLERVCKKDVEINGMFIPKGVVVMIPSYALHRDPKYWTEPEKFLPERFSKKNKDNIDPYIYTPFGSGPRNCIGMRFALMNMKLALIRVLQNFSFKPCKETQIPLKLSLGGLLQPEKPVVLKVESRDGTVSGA
Vascular endothelial growth factor receptor 2, sequence (P35918 whole entry): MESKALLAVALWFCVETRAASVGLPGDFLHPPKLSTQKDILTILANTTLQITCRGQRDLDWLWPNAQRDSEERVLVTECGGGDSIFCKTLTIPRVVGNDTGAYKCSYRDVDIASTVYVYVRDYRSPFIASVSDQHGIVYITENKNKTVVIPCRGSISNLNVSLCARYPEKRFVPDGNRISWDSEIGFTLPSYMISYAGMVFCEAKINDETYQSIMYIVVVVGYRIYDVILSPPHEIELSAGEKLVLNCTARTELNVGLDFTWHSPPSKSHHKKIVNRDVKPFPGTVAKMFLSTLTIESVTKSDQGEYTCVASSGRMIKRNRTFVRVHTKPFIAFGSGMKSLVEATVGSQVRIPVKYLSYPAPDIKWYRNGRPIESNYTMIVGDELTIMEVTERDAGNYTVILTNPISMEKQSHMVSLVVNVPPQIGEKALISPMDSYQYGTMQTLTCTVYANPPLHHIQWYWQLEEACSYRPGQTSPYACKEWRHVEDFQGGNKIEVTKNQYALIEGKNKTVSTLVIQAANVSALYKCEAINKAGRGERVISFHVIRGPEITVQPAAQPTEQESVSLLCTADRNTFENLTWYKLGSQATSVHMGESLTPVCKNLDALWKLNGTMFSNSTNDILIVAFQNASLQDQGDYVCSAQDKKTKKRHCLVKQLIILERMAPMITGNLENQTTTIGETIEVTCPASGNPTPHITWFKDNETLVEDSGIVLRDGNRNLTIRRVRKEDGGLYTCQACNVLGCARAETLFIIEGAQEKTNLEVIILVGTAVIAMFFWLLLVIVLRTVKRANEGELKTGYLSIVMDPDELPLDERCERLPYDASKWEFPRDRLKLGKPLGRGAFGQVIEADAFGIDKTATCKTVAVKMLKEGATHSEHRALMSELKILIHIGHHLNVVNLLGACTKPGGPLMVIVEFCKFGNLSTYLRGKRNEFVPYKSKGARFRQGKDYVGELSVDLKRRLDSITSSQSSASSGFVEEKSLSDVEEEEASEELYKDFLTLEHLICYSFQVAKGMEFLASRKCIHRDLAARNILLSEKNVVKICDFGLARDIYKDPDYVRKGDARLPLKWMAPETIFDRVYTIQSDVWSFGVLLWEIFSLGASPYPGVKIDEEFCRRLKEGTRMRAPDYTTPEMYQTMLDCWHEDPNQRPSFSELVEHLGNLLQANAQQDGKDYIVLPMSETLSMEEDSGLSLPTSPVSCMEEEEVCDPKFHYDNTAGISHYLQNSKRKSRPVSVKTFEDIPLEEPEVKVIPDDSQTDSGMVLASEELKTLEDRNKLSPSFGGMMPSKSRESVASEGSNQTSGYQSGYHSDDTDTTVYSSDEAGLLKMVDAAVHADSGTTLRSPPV

Compound: Cc1cc2c(F)c(Oc3ncnn4cc(OCCCS(C)(=O)=O)c(C)c34)ccc2[nH]1
AUC at 4 h [1]: 185 µM·h
Cmax [2]: 57 µM
IC50 (Cytochrome P450 3A4): 17 µM
IC50 [3]: 20 µM

Compound: COC[C@@H](O)COc1cn2ncnc(Oc3ccc4[nH]c(C)cc4c3F)c2c1C
AUC at 4 h [1]: 128 µM·h
Cmax [2]: 41 µM
IC50 (Cytochrome P450 3A4): 1 µM
IC50 [3]: 18 µM

Compound: Cc1cc2c(F)c(Oc3ncnn4cc(O)c(C)c34)ccc2[nH]1
AUC at 4 h [1]: 0.2 µM·h
Cmax [2]: 0.2 µM

Compound: Cc1cc2c(F)c(Oc3ncnn4cc(OCCC5CCN(C)CC5)c(C)c34)ccc2[nH]1
AUC at 4 h [1]: 2.2 µM·h
Cmax [2]: 0.7 µM
IC50 (Cytochrome P450 3A4): 0.7 µM

Compound: Cc1cc2c(F)c(Oc3ncnn4cc(OCCN5CCC(O)C5)c(C)c34)ccc2[nH]1 (single isomer, unassigned)
AUC at 4 h [1]: 9.9 µM·h
Cmax [2]: 3 µM
inhibition at 1 µM (hERG): 38%

Compound: Cc1cc2c(F)c(Oc3ncnn4cc(OCCCNS(C)(=O)=O)c(C)c34)ccc2[nH]1
AUC at 4 h [1]: 96 µM·h
Cmax [2]: 27 µM
IC50 (Cytochrome P450 3A4): 1 µM

Continued, in another order:

AUC at 4 h [1]: 14 µM·h
Cmax [2]: 4.2 µM
IC50 (Cytochrome P450 3A4): 1 µM
Compound: Cc1cc2c(F)c(Oc3ncnn4cc(OCCCN5CCCCC5)c(C)c34)ccc2[nH]1
inhibition at 1 µM (hERG): 70%

AUC at 4 h [1]: 146 µM·h
Cmax [2]: 56 µM
Compound: Cc1cc2c(F)c(Oc3ncnn4cc(OC[C@H](C)O)c(C)c34)ccc2[nH]1

AUC at 4 h [1]: 136 µM·h
Cmax [2]: 41 µM
IC50 [4]: 0.089 µM
Ki [4]: 0.028 µM
AUC at 24 h [6]: 49 µM·h
half-life [7]: 2.7 h
MRT [8]: 3.6 h
clearance [9]: 9.3 mL/min/kg
Vd [10]: 2 L/kg
AUC at 24 h [11]: 224 µM·h
half-life [12]: 3.6 h
bioavailability [13]: 88%
Cmax [15]: 6.4 µM
Cmax [16]: 0.55 µM
Cmax [17]: 2.05 µM
Cmax [18]: 1.71 µM
AUC at 24 h [19]: 13.4 µM·h
AUC at 24 h [20]: 3.35 µM·h
AUC at 24 h [21]: 8.43 µM·h
AUC at 24 h [22]: 7.61 µM·h
Tmax [23]: 1 h
Compound: Cc1cc2c(F)c(Oc3ncnn4cc(OC[C@@H](C)O)c(C)c34)ccc2[nH]1 [BRIVANIB]
IC50 [3]: 18 µM
Activity (H3396 [5]): 85%
Activity (H3396 [14]): 97%

AUC at 4 h [1]: 20.5 µM·h
Cmax [2]: 5.9 µM
Compound: Cc1cc2c(F)c(Oc3ncnn4cc(OCCCN5CCCC5)c(C)c34)ccc2[nH]1
inhibition at 1 µM (hERG): 66%
